Test results reported in patent US11053204B2, “Pyrimidinyloxy benzene derivatives as herbicides” (FMC Corporation, priority 2015, dated 2021).

Tests used:
Assay type in all cases: in vivo
[1] = system: sedge, umbrella (small-flower umbrella sedge, Cyperus difformis); assay: Test B flooded paddy test, plant response rating; conditions: 250 g ai/ha; Flood; scale of 0 to 100 where 0 is no effect and 100 is complete control; 13 to 15 days
Method in brief: (§1)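 Pots were flooded to 3 cm above the soil surface at treatment, compound applied directly to the paddy water, and that depth held throughout. Plants were kept in a greenhouse for 13 to 15 days, then visually rated against untreated controls.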

[2] = system: barnyardgrass (Echinochloa crus-galli); assay: Test B flooded paddy test, plant response rating; conditions: 250 g ai/ha; Flood; scale of 0 to 100 where 0 is no effect and 100 is complete control; 13 to 15 days
Method in brief: as §1

rice (Oryza sativa) = assay: Test B flooded paddy test, plant response rating; conditions: 250 g ai/ha; Flood; scale of 0 to 100 where 0 is no effect and 100 is complete control; 13 to 15 days
Method in brief: as §1

[3] = system: ducksalad (Heteranthera limosa); assay: Test B flooded paddy test, plant response rating; conditions: 250 g ai/ha; Flood; scale of 0 to 100 where 0 is no effect and 100 is complete control; 13 to 15 days
Method in brief: as §1

[4] = system: giant foxtail (Setaria faberii); assay: Test A postemergence, visual injury rating; conditions: 0 is no effect, 100 is complete control; for Foxtail, Giant plant response rating: 0 to 100 scale, approximately 10 days
Method in brief: (§2)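 Visual 0–100 rating (100 = complete control) taken about 10 d post-treatment relative to untreated checks. Preemergence: directed soil spray on sown loam/sand pots. Postemergence: seedlings 2–10 cm, 1–2 leaf. Non-phytotoxic solvent formulation with surfactant.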

[5] = system: ragweed (common ragweed, Ambrosia elatior); assay: Test A postemergence, visual injury rating; conditions: 0 is no effect, 100 is complete control; for Ragweed plant response rating: 0 to 100 scale, approximately 10 days
Method in brief: as §2

[6] = system: blackgrass (Alopecurus myosuroides); assay: Test A postemergence, visual injury rating; conditions: 0 is no effect, 100 is complete control; for Blackgrass plant response rating: 0 to 100 scale, approximately 10 days
Method in brief: as §2

[7] = system: Italian ryegrass (Lolium multiflorum); assay: Test A postemergence, visual injury rating; conditions: 0 is no effect, 100 is complete control; for Ryegrass, Italian plant response rating: 0 to 100 scale, approximately 10 days
Method in brief: as §2

[8] = system: galium (catchweed bedstraw, Galium aparine); assay: Test A postemergence, visual injury rating; conditions: 0 is no effect, 100 is complete control; for Galium plant response rating: 0 to 100 scale, approximately 10 days
Method in brief: as §2

kochia (Kochia scoparia) [9] = assay: Test A postemergence, visual injury rating; conditions: 0 is no effect, 100 is complete control; for Kochia plant response rating: 0 to 100 scale, approximately 10 days
Method in brief: as §2

[10] = system: barnyardgrass (Echinochloa crus-galli); assay: Test A postemergence, visual injury rating; conditions: 0 is no effect, 100 is complete control; for Barnyardgrass plant response rating: 0 to 100 scale, approximately 10 days
Method in brief: as §2

corn (Zea mays) = assay: Test A postemergence, visual injury rating; conditions: 0 is no effect, 100 is complete control; for Corn plant response rating: 0 to 100 scale, approximately 10 days
Method in brief: as §2

[11] = system: wheat (Triticum aestivum); assay: Test A postemergence, visual injury rating; conditions: 0 is no effect, 100 is complete control; for Wheat plant response rating: 0 to 100 scale, approximately 10 days
Method in brief: as §2

[12] = system: pigweed (Amaranthus retroflexus); assay: Test A postemergence, visual injury rating; conditions: 0 is no effect, 100 is complete control; for Pigweed plant response rating: 0 to 100 scale, approximately 10 days
Method in brief: as §2

[13] = system: giant foxtail (Setaria faberii); assay: Test A preemergence, visual injury rating
Method in brief: as §2

[14] = system: ragweed (common ragweed, Ambrosia elatior); assay: Test A preemergence, visual injury rating
Method in brief: as §2

[15] = system: Italian ryegrass (Lolium multiflorum); assay: Test A preemergence, visual injury rating
Method in brief: as §2

kochia (Kochia scoparia) [16] = assay: Test A preemergence, visual injury rating
Method in brief: as §2

[17] = system: barnyardgrass (Echinochloa crus-galli); assay: Test A preemergence, visual injury rating
Method in brief: as §2

[18] = system: pigweed (Amaranthus retroflexus); assay: Test A preemergence, visual injury rating
Method in brief: as §2

[19] = 31 g ai/ha, 0 to 100 scale, 0 no effect, 100 complete control
[20] = 125 g ai/ha, 0 to 100 scale (0 no effect, 100 complete control)
[21] = 500 g ai/ha, 0 to 100 scale (0 no effect, 100 complete control)

COc1cccc(Oc2ncc(Cl)cn2)c1C(=O)OCCC(F)(F)F [Compound 112]
Plant response rating, Sedge, Umbrella [1]: 100 | Plant response rating, Barnyardgrass [2]: 20 | Plant response rating, Rice (rice (Oryza sativa)): 40 | Plant response rating, Ducksalad [3]: 100 | Foxtail, Giant plant response rating ([4]; 31 g ai/ha): 0 | Foxtail, Giant plant response rating ([4]; 125 g ai/ha): 30 | Ragweed plant response rating ([5]; 31 g ai/ha): 20 | Ragweed plant response rating ([5]; 125 g ai/ha): 40 | Blackgrass plant response rating ([6]; 31 g ai/ha): 0 | Blackgrass plant response rating ([6]; 125 g ai/ha): 30 | Ryegrass, Italian plant response rating ([7]; 31 g ai/ha): 0 | Ryegrass, Italian plant response rating ([7]; 125 g ai/ha): 0 | Galium plant response rating ([8]; 31 g ai/ha): 60 | Galium plant response rating ([8]; 125 g ai/ha): 80 | Kochia plant response rating (kochia (Kochia scoparia) [9]; 31 g ai/ha): 0 | Kochia plant response rating (kochia (Kochia scoparia) [9]; 125 g ai/ha): 30 | Barnyardgrass plant response rating ([10]; 31 g ai/ha): 0 | Barnyardgrass plant response rating ([10]; 125 g ai/ha): 10 | Corn plant response rating (corn (Zea mays); 31 g ai/ha): 0 | Corn plant response rating (corn (Zea mays); 125 g ai/ha): 0 | Wheat plant response rating ([11]; 31 g ai/ha): 0 | Wheat plant response rating ([11]; 125 g ai/ha): 0 | Pigweed plant response rating ([12]; 31 g ai/ha): 40 | Pigweed plant response rating ([12]; 125 g ai/ha): 70 | Plant response rating, Foxtail, Giant [13, 19]: 0 | Plant response rating, Foxtail, Giant [13, 20]: 70 | Plant response rating, Ragweed [14, 19]: 0 | Plant response rating, Ragweed [14, 20]: 0 | Plant response rating, Ryegrass, Italian [15, 19]: 10 | Plant response rating, Ryegrass, Italian [15, 20]: 0 | Plant response rating, Kochia (kochia (Kochia scoparia) [16]; [19]): 0 | Plant response rating, Kochia (kochia (Kochia scoparia) [16]; [20]): 50 | Plant response rating, Barnyardgrass [17, 19]: 0 | Plant response rating, Barnyardgrass [17, 20]: 80 | Plant response rating, Pigweed [18, 19]: 60 | Plant response rating, Pigweed [18, 20]: 100

O=C(OCC1CC1(F)F)c1c(Br)cccc1Oc1ncc(Cl)cn1 (stereo not drawn) [Compound 10]
Plant response rating, Sedge, Umbrella [1]: 80 | Plant response rating, Barnyardgrass [2]: 0 | Plant response rating, Rice (rice (Oryza sativa)): 0 | Plant response rating, Ducksalad [3]: 80 | Foxtail, Giant plant response rating (0 to 100 scale) ([4]; 125 g ai/ha): 30 | Foxtail, Giant plant response rating (0 to 100 scale) ([4]; 500 g ai/ha): 100 | Ragweed plant response rating (0 to 100 scale) ([5]; 125 g ai/ha): 10 | Ragweed plant response rating (0 to 100 scale) ([5]; 500 g ai/ha): 50 | Blackgrass plant response rating (0 to 100 scale) ([6]; 125 g ai/ha): 20 | Blackgrass plant response rating (0 to 100 scale) ([6]; 500 g ai/ha): 90 | Ryegrass, Italian plant response rating (0 to 100 scale) ([7]; 125 g ai/ha): 10 | Ryegrass, Italian plant response rating (0 to 100 scale) ([7]; 500 g ai/ha): 60 | Galium plant response rating (0 to 100 scale) ([8]; 125 g ai/ha): 100 | Galium plant response rating (0 to 100 scale) ([8]; 500 g ai/ha): 100 | Kochia plant response rating (0 to 100 scale) (kochia (Kochia scoparia) [9]; 125 g ai/ha): 90 | Kochia plant response rating (0 to 100 scale) (kochia (Kochia scoparia) [9]; 500 g ai/ha): 100 | Barnyardgrass plant response rating (0 to 100 scale) ([10]; 125 g ai/ha): 20 | Barnyardgrass plant response rating (0 to 100 scale) ([10]; 500 g ai/ha): 100 | Corn plant response rating (0 to 100 scale) (corn (Zea mays); 125 g ai/ha): 10 | Corn plant response rating (0 to 100 scale) (corn (Zea mays); 500 g ai/ha): 60 | Wheat plant response rating (0 to 100 scale) ([11]; 125 g ai/ha): 0 | Wheat plant response rating (0 to 100 scale) ([11]; 500 g ai/ha): 40 | Pigweed plant response rating (0 to 100 scale) ([12]; 125 g ai/ha): 90 | Pigweed plant response rating (0 to 100 scale) ([12]; 500 g ai/ha): 100 | Foxtail, Giant plant response rating [13, 20]: 100 | Foxtail, Giant plant response rating [13, 21]: 100 | Ragweed plant response rating [14, 20]: 0 | Ragweed plant response rating [14, 21]: 0 | Ryegrass, Italian plant response rating [15, 20]: 10 | Ryegrass, Italian plant response rating [15, 21]: 30 | Kochia plant response rating (kochia (Kochia scoparia) [16]; [20]): 90 | Kochia plant response rating (kochia (Kochia scoparia) [16]; [21]): 100 | Barnyardgrass plant response rating [17, 20]: 40 | Barnyardgrass plant response rating [17, 21]: 100 | Pigweed plant response rating [18, 20]: 100 | Pigweed plant response rating [18, 21]: 100
